Patent US5223526A, “Pyrazole carboxanilide fungicides and use” (Monsanto Company, priority 1992, dated 1993)

Columns and labels:
Botrytis cinerea [1] = assay: Vine grey mold (grape berries); type: in vivo; settings: average of six berries, 7-10 days; for pest or weed control at 50 ppm: grape berries treated with 50 ppm, read-out: % DISEASE CONTROL 50 ppm; for pest or weed control at 200 ppm: grape berries treated with 200 ppm, read-out: % DISEASE CONTROL 200 ppm
Summary of the method: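 Preventive berry test: compound at 50 or 200 ppm (acetone/water, 0.05% Tween 20) applied one day before inoculation with 10^6 spores/mL Botrytis conidia. After 7-10 days at 20 °C under 12 h light, infected surface area rated; disease control expressed as percent reduction from control mean; repeated-test values averaged.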

Rhizoctonia solani = assay: Rice sheath blight; type: in vivo; set-up: scale not given here; settings: inoculated two days later, rated after 7 days, average of five plants; for Disease Control Rating at 0.5 mg/mL: foliage and soil sprayed with 0.5 mg/mL; for Disease Control Rating at 0.02 mg/mL: foliage and soil sprayed with 0.02 mg/mL; for Disease Control Rating at 0.1 mg/mL: foliage and soil sprayed with 0.1 mg/mL
Summary of the method: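 Rice plants 11–15 days old had foliage and soil sprayed with 0.5, 0.1 or 0.02 mg/mL Compound A in water/acetone/Tween 20, then kept in flooded trays. Two days later, rice-grain Rhizoctonia solani inoculum went to plant bases; disease control scored versus untreated after 7 days at 25 °C, high humidity, averaging five plants.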

succinate dehydrogenase = target: T1, succinate dehydrogenase (Botrytis cinerea, UniProt A0A384J5E4+A0A384J8V8+A0A384JHJ5); assay: Enzyme inhibition: succinate dehydrogenase activity in Botrytis cinerea mitochondria (DCPIP reduction); type: biochemical; settings: concentration required to inhibit the rate of DCPIP reduction by 50%; Botrytis cinerea isolate Nick mitochondria; read-out: I50 (μM conc.)
T1 construct: succinate-DCPIP reductase assay with KCN
Summary of the method: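 Crude mitochondria from Botrytis cinerea isolate Nick mycelia, prepared by bead-beating and differential centrifugation, started reactions. SDH activity followed as DCPIP reduction at 600 nm in 50 mM K-phosphate pH 7.2 with 1 mM KCN, 45 μM DCPIP, 17 mM succinate, 1% acetone. I50 from semilog inhibition plots, corrected for succinate-free rates.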

Botrytis cinerea [2] = assay: Eggplant grey mold; type: in vivo; set-up: scale not given here; settings: inoculated 24 h later, rated after 3-4 days; for Disease Control Rating at 20 ppm: eggplant sprayed with 20 ppm; for Disease Control Rating at 100 ppm: eggplant sprayed with 100 ppm; for Disease Control Rating at 500 ppm: eggplant sprayed with 500 ppm
Summary of the method: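 Protective test: compound formulations (2:3 acetone:water, 0.5% Tween 20; 500, 100 or 20 ppm) sprayed on 14-18-day-old plants, with spore inoculum (4×10^6 spore/mL) applied a day later. Disease control rated on Botrytis lesions after 3-4 days at 23 °C and 100% humidity.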

T1 sequence (A0A384J5E4 1-300): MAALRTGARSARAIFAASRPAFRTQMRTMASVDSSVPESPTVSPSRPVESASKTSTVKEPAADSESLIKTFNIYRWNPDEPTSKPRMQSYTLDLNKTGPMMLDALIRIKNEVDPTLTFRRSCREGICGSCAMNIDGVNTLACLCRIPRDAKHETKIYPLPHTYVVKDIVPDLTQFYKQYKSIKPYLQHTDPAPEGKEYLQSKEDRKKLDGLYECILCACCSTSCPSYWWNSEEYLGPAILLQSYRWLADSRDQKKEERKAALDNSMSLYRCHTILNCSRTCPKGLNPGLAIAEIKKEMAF
T1 sequence (A0A384J8V8 1-189): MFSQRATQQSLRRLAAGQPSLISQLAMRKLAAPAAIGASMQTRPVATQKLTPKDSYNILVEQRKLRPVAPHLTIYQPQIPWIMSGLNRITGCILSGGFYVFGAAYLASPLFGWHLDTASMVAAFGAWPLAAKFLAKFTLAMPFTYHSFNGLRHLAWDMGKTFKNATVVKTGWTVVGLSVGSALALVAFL
T1 sequence (A0A384JHJ5 1-192): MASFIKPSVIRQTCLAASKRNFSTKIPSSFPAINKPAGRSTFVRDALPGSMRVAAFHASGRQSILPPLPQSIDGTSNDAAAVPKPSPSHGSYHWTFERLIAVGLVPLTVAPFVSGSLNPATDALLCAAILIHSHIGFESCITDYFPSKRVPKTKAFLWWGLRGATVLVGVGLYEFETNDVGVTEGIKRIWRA
T1 sequence (A0A384K456 1-647 partner): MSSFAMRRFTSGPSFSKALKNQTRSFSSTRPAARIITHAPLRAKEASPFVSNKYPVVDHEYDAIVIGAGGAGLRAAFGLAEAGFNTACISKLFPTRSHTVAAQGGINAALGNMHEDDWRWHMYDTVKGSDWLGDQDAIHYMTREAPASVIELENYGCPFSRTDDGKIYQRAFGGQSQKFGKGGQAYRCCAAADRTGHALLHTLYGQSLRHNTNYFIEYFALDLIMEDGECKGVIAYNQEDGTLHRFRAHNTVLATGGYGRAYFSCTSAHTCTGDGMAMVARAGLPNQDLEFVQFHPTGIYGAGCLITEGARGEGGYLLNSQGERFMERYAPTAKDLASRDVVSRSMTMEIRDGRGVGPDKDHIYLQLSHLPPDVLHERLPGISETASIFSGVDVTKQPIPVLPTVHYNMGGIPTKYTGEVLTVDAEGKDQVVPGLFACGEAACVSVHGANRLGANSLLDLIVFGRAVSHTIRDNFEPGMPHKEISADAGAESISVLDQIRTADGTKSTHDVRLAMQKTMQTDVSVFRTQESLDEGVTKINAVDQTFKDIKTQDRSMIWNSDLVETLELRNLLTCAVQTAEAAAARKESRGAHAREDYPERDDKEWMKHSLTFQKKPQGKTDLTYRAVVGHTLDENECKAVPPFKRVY

Compound	pest or weed control at 50 ppm (Botrytis cinerea [1]) [%]	pest or weed control at 200 ppm (Botrytis cinerea [1]) [%]	Disease Control Rating at 0.5 mg/mL (Rhizoctonia solani)	IC50 (succinate dehydrogenase) [µM]	Disease Control Rating at 20 ppm (Botrytis cinerea [2])	Disease Control Rating at 100 ppm (Botrytis cinerea [2])	Disease Control Rating at 500 ppm (Botrytis cinerea [2])	Disease Control Rating at 0.02 mg/mL (Rhizoctonia solani)	Disease Control Rating at 0.1 mg/mL (Rhizoctonia solani)
CC(C)C1CCCC=C1c1ccccc1NC(=O)c1cn(C)nc1C(F)(F)F (stereo not drawn) [Example 131, 1H-pyrazole-4-carboxamide, 1-methyl-N-[2-[6-(1-methylethyl)-1-cyclohexen-1-yl]phenyl]-3-(trifluoromethyl)-]	7	0	2	0.19	0	0	0	–	–
Cn1cc(C(=O)Nc2ccccc2C2=CCC(C(C)(C)C)CC2)c(C(F)F)n1 (stereo not drawn) [Example 132, 1H-pyrazole-4-carboxamide, 3-(difluoromethyl)-N-[2-[4-(1,1-dimethylethyl)-1-cyclohexen-1-yl]phenyl]-1-methyl-]	50	51	3	0.0035	–	–	0	1	2
Cn1cc(C(=O)Nc2ccccc2C2=CCC(C(C)(C)C)CC2)c(C(F)(F)F)n1 (stereo not drawn) [Example 133, 1H-pyrazole-4-carboxamide, N-[2-[4-(1, -dimethylethyl)-1-cyclohexen-1-yl]phenyl]-1-methyl-3-(trifluoromethyl)-]	39	36	3	0.0046	0	0	1	1	2
Cn1cc(C(=O)Nc2ccccc2C2CCC(C(C)(C)C)CC2)c(C(F)F)n1 (stereo not drawn) [Example 134]	66	61	3	0.0047	1	1	2	3	3
Cn1cc(C(=O)Nc2ccccc2C2CCC(C(C)(C)C)CC2)c(C(F)(F)F)n1 (stereo not drawn) [Example 135, 1H-pyrazole-4-carboxamide, N-[2-[4-(1,1-dimethylethyl)cyclohexyl]-phenyl]-1-methyl-3-(trifluoromethyl)-]	52	66	3	0.01	1	1	2	–	–
CC1=C(c2ccccc2NC(=O)c2cn(C)nc2C(F)(F)F)CCC1 [Example 137, 1H-pyrazole-4-carboxamide, 1-methyl-N-[2-(2-methyl-1-cyclopenten-1-yl)phenyl]-3-(trifluoromethyl)-]	83	100	3	0.02	1	3	3	1	2
CCC1CCCC(C)=C1c1ccccc1NC(=O)c1cn(C)nc1C(F)(F)F (stereo not drawn) [Example 138, 1H-pyrazole-4-carboxamide, N-[2-(6-ethyl-2-methyl-1-cyclohexen-1-yl)phenyl]-1-methyl-3-(trifluoromethyl)-]	0	4	2	0.13	0	0	0	–	–
Cn1cc(C(=O)Nc2ccccc2C2CC(C)(C)CC(C)(C)C2)c(C(F)(F)F)n1 [Example 139, 1H-pyrazole-4-carboxamide, 1-methyl-N-[2-(3,3,5,5-tetramethylcyclohexyl)phenyl]-3-(trifluoromethyl)-]	2	1	3	0.032	0	0	0	2	2
Cn1cc(C(=O)Nc2ccccc2C2CC(C)(C)CC(C)(C)C2)c(C(F)F)n1 [Example 140, 1H-pyrazole-4-carboxamide, 3-(difluoromethyl)-1-methyl-N-[2-(3,3,5,5-tetramethylcyclohexyl)-phenyl]-]	16	12	3	0.039	0	1	1	0	2
Cn1cc(C(=O)Nc2ccccc2C2=CCCCC2C(C)(C)C)c(C(F)(F)F)n1 (stereo not drawn) [Example 141, 1H-pyrazole-4-carboxamide, N-[2-[6-(1,1-dimethylethyl)-1-cyclohexen-1-yl]phenyl]-1-methyl-3-(trifluoromethyl)-]	12	12	3	0.049	0	0	1	–	–
Cn1cc(C(=O)Nc2ccccc2CC2CCCC2)c(C(F)(F)F)n1 [Example 142, 1H-pyrazole-4-carboxamide, N-[2-(cyclopentylmethyl)phenyl]-1-methyl-3-(trifluoromethyl)-]	0	18	3	0.22	0	1	1	–	–
Cn1cc(C(=O)Nc2ccccc2C=C2CCCCCC2)c(C(F)(F)F)n1 [Example 143, 1H-pyrazole-4-carboxamide, N-[2-(cycloheptylidenemethyl)phenyl]-1-methyl-3-(trifluoromethyl)-]	33	36	3	0.025	0	0	0	–	–
Cn1cc(C(=O)Nc2ccccc2C2=CCSCC2)c(C(F)F)n1 [Example 144, 1H-pyrazole-4-carboxamide, 3-(difluoromethyl)-N-[2-(5,6-dihydro-2H-thiopyran-4-yl)phenyl]-1-methyl-]	15	37	3	0.037	0	0	1	–	–
Cn1cc(C(=O)Nc2ccccc2CC2CCCCCC2)c(C(F)F)n1 [Example 145, 1H-pyrazole-4-carboxamide, 1-methyl-N-[2-(cycloheptylmethyl)-phenyl]-3-(difluoromethyl)-]	0	0	3	0.025	0	0	0	–	–
